In patent US10407414B2, “Mannose derivatives for treating bacterial infections” (priority 2015, dated 2019):

Each compound was assayed on bacterial strain LF82 binding to the glycoprotein BSA-(Mannose)3 (FimH antagonists) (assay: Bacterial Binding Assay (BBA)). Details: read-out: Bacterial Binding Assay IC50 ± SEM.
Assay type: cell-based, Escherichia coli
Excerpt: The purpose of the Bacterial Binding Assay (BBA) is to determine the inhibition activity of selective FimH antagonists on the bacterial strain LF82 binding to the glycoprotein BSA-(Mannose)3.
Below is a list of the Materials used to run the BBA are described below. • 1. LB broth: Supplier: Gibco, #10855 • 2. D-PBS: Supplier: Wisent, #311-425-CL • 3. LB agar plates • 4. 96-well black plate (high binding): Supplier: Costar, #3925 • 5. TopSeal™-A adhesive sealing films; Supplier PerkinElmer, #6005185 • 6. Carbonate-bicarbonate buffer pH 9.6 tablets, Supplier: Medicago, #09-8922-24 • 7. Water, Supplier: Gibco, #15230-162 • 8. Bovine serum albumin (BSA): Supplier: Sigma, #A-7888 • 9. (Man)3-BSA (α1-3, α1-6 Mannotriose-BSA, 1 mg), V-Labs, #NGP1336, lot# HGDX37-169-1 • 10. Tween 20: Supplier: Sigma, #P9416 • 11. Bright-Glo Luciferase Assay System: Supplier: Promega, #E2610 • 12. LF82/Luciferase strain: Invasive ability of an Escherichia coli strain isolated from the ileal mucosa of a patient with Crohn's disease. Boudeau J, Glasser A L, Masseret E, Joly B, Darfeuille-Michaud A, Infect Immun. 1999, 67(9), 4499-509
Solutions and buffers used to run the BBA are described below. • 1. 0.04M carbonate-bicarbonate buffer (coating buffer) • 2. 40 μg/mL BSA-(Man)3: Dissolve 1 mg of (Man)3-BSA in 25 mL of water. • 3. 4000 μg/mL BSA • 4. 40 μg/mL BSA • 5. 1 μg/mL BSA-(Man)3: 150 μL of 40 μg/mL BSA-(Man)3+5.85 mL of 40 μg/mL BSA • 6. 0.5 μg/mL BSA-(Man)3 in 0.02M carbonate-bicarbonate buffer. • 7. 20 μg/mL BSA in 0.02M carbonate-bicarbonate buffer • 8. Blocking buffer (2% BSA/DPBS): 1 g of BSA in 50 mL D-PBS • 9. 2× binding buffer (0.2% BSA/D-PBS): 5 mL of blocking buffer+45 mL D-PBS. • 10. Washing buffer (D-PBS/0.01% Tween 20): 10 μL of Tween 20 in 100 mL D-PBS. • 11. 1× Bright-Glo Luciferase substrate: Dilute 1:1 the Bright-Glo Luciferase Assay System with D-PBS
The experimental protocol used in this example to run the BBA is described below.
Overnight culture of LF82/Luciferase strain: Into two Falcon 50 mL tubes, add 20 mL of LB+20 μL of 50 mg/mL Kanamycin and inoculate with a loop from glycerol stock of the LF82/Luciferase strain. Incubate overnight at 37° C. with no shaking.
Glycoprotein coating of 96-well plates: Add 100 μL/well of 0.5-2 μg/mL BSA-(Man)3. 20 μg/mL BSA is used as the control background. Seal plate using an adhesive sealing film and incubate overnight at room temperature. Wash the 96-well plate three times with 150 μL/well of D-PBS, add 170 μL/well of blocking solution and incubate 45 min (minimum) at room temperature.
Preparation of bacterial suspension: Mix the two cultures tubes (40 mL) and perform a 1:10 dilution in LB (900 μl LB+100 μl culture. Measure optical density (OD) of the bacterial cultures. OD1 ˜5×10^8 cells/mL. Centrifuge LF82 culture for 20 min at 3500 rpm at room temperature. Re-suspend bacterial pellet in D-PBS and centrifuge again for 20 min at 3500 rpm. Re-suspend bacterial pellet in D-PBS to obtain a bacterial concentration of 2×10^9 bacteria/mL. Dilute 1/10 in D-PBS to obtain a final bacterial concentration of 2×10^8 bacteria/mL (=107 bacteria/50 μL). Perform 1/10 serial dilutions in LB of each bacterial suspension, plate 10 μL of dilutions on LB agar plates (final dilutions of 10^−7) and incubate overnight at 37° C. and count CFUs to determine the actual bacteria density in the assay.
Bacterial binding assay: Add 147 μL 2× binding buffer to compound plate (containing 3 μL of compound). After blocking step is performed (at least 45 min), wash plates three times with 200 μL/well of D-PBS. With a 100 μL multichannel manual pipettor, add 50 μL/well of compound diluted in 2× binding buffer. With a 100 μL multichannel manual pipettor, add 50 μL/well of bacterial suspension. Agitate at slow speed for 1 min and incubate 40-75 min at room temperature. Wash 5 times with 150 μL/well of washing buffer and then once with D-PBS. Add 100 μL/well of 1× Bright-Glo Luciferase substrate. […]

Q: `Cc1cc(C#C[C@H]2O[C@H](CO)[C@@H](O)[C@H](O)[C@@H]2O)c2[nH]ccc2c1` [Compound 4, (2R,3S,4R,5S,6R)-2-(hydroxymethyl)-6-[2-(5-methyl-1H-indol-7-yl)ethynyl]tetrahydropyran-3,4,5-triol] was tested. Which IC50 did it give?
A: The IC50 was 46 ± 12 nM.

Q: Which IC50 does the source give for `O=C1Cc2cccc(C#C[C@H]3O[C@H](CO)[C@@H](O)[C@H](O)[C@@H]3O)c2N1` [Compound 11, 7-[2-[(2R,3S,4R,5S,6R)-3,4,5-trihydroxy-6-(hydroxymethyl)tetrahydropyran-2-yl]ethynyl]indolin-2-one] here?
A: The IC50 was 190 ± 75 nM.

Q: `NC1(C#Cc2cc(C#C[C@H]3O[C@H](CO)[C@@H](O)[C@H](O)[C@@H]3O)c3[nH]ncc3c2)CCCCC1` [Compound 50] was tested. Which IC50 did it give?
A: The IC50 was 9 ± 1 nM.

Q: With `CCN(CC)CC#Cc1cc(C#C[C@H]2O[C@H](CO)[C@@H](O)[C@H](O)[C@@H]2O)c2[nH]ncc2c1` [Compound 53, (2R,3S,4R,5S,6R)-2-[2-[5-[3-(diethylamino)prop-1-ynyl]-1H-indazol-7-yl]ethynyl]-6-(hydroxymethyl)tetrahydropyran-3,4,5-triol] as the compound, how does the IC50 read?
A: The IC50 was 4 ± 0.5 nM.

Q: With `Cc1cc(F)ccc1-c1cc(C#C[C@H]2O[C@H](CO)[C@@H](O)[C@H](O)[C@@H]2O)c2[nH]ncc2c1` [Compound 94, (2R,3S,4R,5S,6R)-2-[2-[5-(4-fluoro-2-methyl-phenyl)-1H-indazol-7-yl]ethynyl]-6-(hydroxymethyl)tetrahydropyran-3,4,5-triol] as the compound, how does the IC50 read?
A: Its IC50 is 0.6 ± 0.3 nM.

Q: How did the IC50 turn out when `O=C(c1cc(C#C[C@H]2O[C@H](CO)[C@@H](O)[C@H](O)[C@@H]2O)c2[nH]ncc2c1)N1CCOCC1` [Compound 61, morpholino-[7-[2-[(2R,3S,4R,5S,6R)-3,4,5-trihydroxy-6-(hydroxymethyl)tetrahydropyran-2-yl]ethynyl]-1H-indazol-5-yl]methanone] was run?
A: The IC50 was 0.6 ± 0.1 nM.

Q: For `OC[C@H]1O[C@H](C#Cc2cc(-c3ccc(F)cc3F)cc3cn[nH]c23)[C@@H](O)[C@@H](O)[C@@H]1O` [Compound 81, (2R,3S,4R,5S,6R)-2-[2-[5-(2,4-difluorophenyl)-1H-indazol-7-yl]ethynyl]-6-(hydroxymethyl)tetrahydropyran-3,4,5-triol], which IC50 is on record?
A: Its IC50 is 0.4 ± 0.2 nM.

Q: How did the IC50 turn out when `CCc1ccc(/C=C/c2cc(C#C[C@H]3O[C@H](CO)[C@@H](O)[C@H](O)[C@@H]3O)c3[nH]ncc3c2)cc1` [Compound 69, (2R,3S,4R,5S,6R)-2-[2-[5-[(E)-2-(4-ethylphenyl)vinyl]-1H-indazol-7-yl]ethynyl]-6-(hydroxymethyl)tetrahydropyran-3,4,5-triol] was run?
A: The IC50 was 13 ± 9 nM.

Q: For `Cc1cc(=O)n(C)cc1-c1cc(C#C[C@H]2O[C@H](CO)[C@@H](O)[C@H](O)[C@@H]2O)c2[nH]ncc2c1` [Compound 76, 1,4-dimethyl-5-[7-[2-[(2R,3S,4R,5S,6R)-3,4,5-trihydroxy-6-(hydroxymethyl)tetrahydropyran-2-yl]ethynyl]-1H-indazol-5-yl]pyridin-2-one], which IC50 is on record?
A: The IC50 was 0.3 ± 0.09 nM.

Q: `CC(C)(C)C#Cc1cc(C#C[C@H]2O[C@H](CO)[C@@H](O)[C@H](O)[C@@H]2O)c2[nH]ncc2c1` [Compound 44, (2R,3S,4R,5S,6R)-2-[2-[5-(3,3-dimethylbut-1-ynyl)-1H-indazol-7-yl]ethynyl]-6-(hydroxymethyl)tetrahydropyran-3,4,5-triol] was tested. Which IC50 did it give?
A: Its IC50 is 5 ± 0.5 nM.

Q: With `Cc1cc(O)ccc1-c1cc(C#C[C@H]2O[C@H](CO)[C@@H](O)[C@H](O)[C@@H]2O)c2[nH]ncc2c1` [Compound 91, (2R,3S,4R,5S,6R)-2-(hydroxymethyl)-6-[2-[5-(4-hydroxy-2-methyl-phenyl)-1H-indazol-7-yl]ethynyl]tetrahydropyran-3,4,5-triol] as the compound, how does the IC50 read?
A: The IC50 was 0.3 ± 0.03 nM.

Q: How did the IC50 turn out when `CCCCn1ncc2c(C#C[C@H]3O[C@H](CO)[C@@H](O)[C@H](O)[C@@H]3O)cccc21` [Compound 21, (2R,3S,4R,5S,6R)-2-[2-(1-butylindazol-4-yl)ethynyl]-6-(hydroxymethyl)tetrahydropyran-3,4,5-triol] was run?
A: The IC50 was 22 ± 0.5 nM.

Q: `OC[C@H]1O[C@H](C#Cc2nccc3cn[nH]c23)[C@@H](O)[C@@H](O)[C@@H]1O` [Compound 14, (2R,3S,4R,5S,6R)-2-(hydroxymethyl)-6-[2-(1H-pyrazolo[3,4-c]pyridin-7-yl)ethynyl]tetrahydropyran-3,4,5-triol] was tested. Which IC50 did it give?
A: Its IC50 is 350 ± 80 nM.

Q: Which IC50 does the source give for `COc1ccc(-c2cc(C#C[C@H]3O[C@H](CO)[C@@H](O)[C@H](O)[C@@H]3O)c3[nH]ncc3c2)cc1` [Compound 30, (2R,3S,4R,5S,6R)-2-(hydroxymethyl)-6-[2-[5-(4-methoxyphenyl)-1H-indazol-7-yl]ethynyl]tetrahydropyran-3,4,5-triol] here?
A: Its IC50 is 0.5 ± 0.2 nM.

Q: For `O=C(NC1CCCCC1)c1cc(C#C[C@H]2O[C@H](CO)[C@@H](O)[C@H](O)[C@@H]2O)c2[nH]ncc2c1` [Compound 63, N-cyclohexyl-7-[2-[(2R,3S,4R,5S,6R)-3,4,5-trihydroxy-6-(hydroxymethyl)tetrahydropyran-2-yl]ethynyl]-1H-indazole-5-carboxamide], which IC50 is on record?
A: Its IC50 is 26 ± 1 nM.

Q: Which IC50 does the source give for `CC(=O)Nc1cccc(-c2cc(C#C[C@H]3O[C@H](CO)[C@@H](O)[C@H](O)[C@@H]3O)c3[nH]ncc3c2)c1` [Compound 36, N-[3-[7-[2-[(2R,3S,4R,5S,6R)-3,4,5-trihydroxy-6-(hydroxymethyl)tetrahydropyran-2-yl]ethynyl]-1H-indazol-5-yl]phenyl]acetamide] here?
A: Its IC50 is 2 ± 0.2 nM.

Q: With `OC[C@H]1O[C@H](C#Cc2cc(C3=CCOCC3)cc3cn[nH]c23)[C@@H](O)[C@@H](O)[C@@H]1O` [Compound 68, (2R,3S,4R,5S,6R)-2-[2-[5-(3,6-dihydro-2H-pyran-4-yl)-1H-indazol-7-yl]ethynyl]-6-(hydroxymethyl)tetrahydropyran-3,4,5-triol] as the compound, how does the IC50 read?
A: The IC50 was 1 ± 0.4 nM.

Q: `OC[C@H]1O[C@H](C#Cc2cc(C#Cc3cccc(O)c3)cc3cn[nH]c23)[C@@H](O)[C@@H](O)[C@@H]1O` [Compound 47, (2R,3S,4R,5S,6R)-2-(hydroxymethyl)-6-[2-[5-[2-(3-hydroxyphenyl)ethynyl]-1H-indazol-7-yl]ethynyl]tetrahydropyran-3,4,5-triol] was tested. Which IC50 did it give?
A: Its IC50 is 12 ± 6 nM.

Q: How did the IC50 turn out when `Cc1cc(OCc2ccccc2)ncc1-c1cc(C#C[C@H]2O[C@H](CO)[C@@H](O)[C@H](O)[C@@H]2O)c2[nH]ncc2c1` [Compound 55, (2R,3S,4R,5S,6R)-2-[2-[5-(6-benzyloxy-4-methyl-3-pyridyl)-1H-indazol-7-yl]ethynyl]-6-(hydroxymethyl)tetrahydropyran-3,4,5-triol] was run?
A: Its IC50 is 2 ± 0.05 nM.

Q: With `O=C(NC1CCCC1)c1cc(C#C[C@H]2O[C@H](CO)[C@@H](O)[C@H](O)[C@@H]2O)c2[nH]ncc2c1` [Compound 64, N-cyclopentyl-7-[2-[(2R,3S,4R,5S,6R)-3,4,5-trihydroxy-6-(hydroxymethyl)tetrahydropyran-2-yl]ethynyl]-1H-indazole-5-carboxamide] as the compound, how does the IC50 read?
A: The IC50 was 50 ± 7 nM.

Q: `Cc1cc(-c2cc(C#C[C@H]3O[C@H](CO)[C@@H](O)[C@H](O)[C@@H]3O)c3[nH]ncc3c2)c[nH]c1=O` [Compound 79, 3-methyl-5-[7-[2-[(2R,3S,4R,5S,6R)-3,4,5-trihydroxy-6-(hydroxymethyl)tetrahydropyran-2-yl]ethynyl]-1H-indazol-5-yl]-1H-pyridin-2-one] was tested. Which IC50 did it give?
A: Its IC50 is 0.4 ± 0.1 nM.
